# Test system: not given
# Assay: not given
# Conditions: not given
row,Compound,melting point [°C]
1,Cn1c(=O)c(-c2ccccc2Cl)cc2cnc(NC3CC4CCC(C3)N4Cc3ccccc3)nc21 (stereo not shown),147.4 to 153.8
2,"O=c1c(-c2ccccc2Cl)cc2cnc(NC3C4COCC3CN(Cc3ccccc3)C4)nc2n1-c1ccc(F)cc1 (stereo not shown) [Compound No. 52, 2-(7-Benzyl-3-oxa-7-aza-bicyclo[3.3.1]non-9-ylamino)-6-(2-chlorophenyl)-8-(4-fluorophenyl)-8H-pyrido[2,3-d]pyrimidin-7-one]",107.4 to 110.4
3,Cn1c(=O)c(-c2ccccc2Cl)cc2cnc(NC3CC4CCCC(C3)N4Cc3ccccc3)nc21 (stereo not shown),76.9 to 82
4,"CCOC(=O)N1CC2C(C1)C2Nc1ncc2cc(-c3ccccc3Cl)c(=O)n(C)c2n1 (stereo not shown) [Compound No. 68, 6-[6-(2-Chlorophenyl)-8-methyl-7-oxo-7,8-dihydro-pyrido[2,-d]pyrimidin-2-ylamino]-3-aza-bicyclo[3.1.0]hexane-3-carboxylic acid ethyl ester]",118.7 to 125.2

# Test system: not listed separately
# Assay: Precipitate formation in the DMSO solvent used
# Assay type: physicochemical
# Conditions: DMSO solvent used in testing
row,Compound,formed a precipitate in the DMSO solvent used
1,"Cc1ccc(S(=O)(=O)N2CC3C(C2)C3Nc2ncc3cc(-c4ccccc4Cl)c(=O)n(C)c3n2)cc1 (stereo not shown) [Compound No. 43, 6-(2-Chlorophenyl)-8-methyl-2-[3-(toluene-4-sulfonyl)-3-aza-bicyclo[3.1.0]hex-6-ylamino]-8H-pyrido[2,3-d]pyrimidin-7-one]",formed a precipitate in the DMSO solvent used
2,"O=c1c(-c2ccccc2Cl)cc2cnc(NC3C4CN(S(=O)(=O)c5ccc(C(F)(F)F)cc5)CC43)nc2n1C1CC1 (stereo not shown) [Compound No. 37, 6-(2-Chlorophenyl)-8-cyclopropyl-2-[3-(4-trifluoromethylbenzenesulfonyl)-3-aza-bicyclo[3.1.0]hex-6-ylamino]-8H-pyrido[2,3-d]pyrimidin-7-one]",formed a precipitate in the DMSO solvent used
3,CC(C)(C)CC(C)(C)NC(=O)N1CC2C(C1)C2Nc1ncc2cc(-c3ccccc3Cl)c(=O)n(C3CC3)c2n1 (stereo not shown) [Compound No. 24],formed a precipitate in the DMSO solvent used
4,"Cn1c(=O)c(-c2ccccc2Cl)cc2cnc(NC3C4CN(S(=O)(=O)c5ccccc5)CC43)nc21 (stereo not shown) [Compound No. 41, 2-(3-Benzenesulphonyl-3-aza-bicyclo[3.1.0]hex-6-ylamino)-6-(2-chlorophenyl)-8-methyl-8H-pyrido[2,3-d]pyrimidin-7-one]",formed a precipitate in the DMSO solvent used
5,"Cc1ccc(S(=O)(=O)N2CC3C(C2)C3Nc2ncc3cc(-c4ccccc4Cl)c(=O)n(C4CC4)c3n2)cc1 (stereo not shown) [Compound No. 21, 6-(2-Chlorophenyl)-8-cyclopropyl-2-[3-(toluene-4-sulphonyl)-3-aza-bicyclo[3.1.0]hex-6-ylamino]-8H-pyrido[2,3-d]pyrimidin-7-one]",formed a precipitate in the DMSO solvent used
6,"O=c1[nH]c2nc(NC3C4COCC3CN(Cc3ccccc3)C4)ncc2cc1-c1ccccc1Cl (stereo not shown) [Compound No. 61, 2-(7-Benzyl-3-oxa-7-aza-bicyclo[3.3.1]non-9-ylamino)-6-(2-chlorophenyl)-8H-pyrido[2,3-d]pyrimidin-7-one]",formed a precipitate in the DMSO solvent used

# Test system: TNF-α release from peripheral blood mononuclear cells
# Assay: Cell based assay for TNF-α release, LPS stimulation of human PBMNC's (ELISA)
# Conditions: PBMC, LPS 20 ng/ml, overnight, span over the group, units given in the value
# Experimental: Human whole blood was collected in vacutainer tubes containing EDTA as an anti coagulant. A blood sample (7 ml) was carefully layered over 5 ml PMN Cell Isolation Medium (Robbins Scientific) in a 15 ml round bottom centrifuge tubes. The sample was centrifuged at 450-500×g for 30-35 minutes in a swing-out rotor at room temperature. After centrifugation the top band of cells were removed and washed 3 times with PBS w/o calcium or magnesium. The cells were centrifuged at 400×g for 10 minutes at room temperature. The cells were resuspended in Macrophage Serum Free Medium (Gibco BRL) at concentration of 2 million cells/ml.
# PBM cells (0.1 ml; 2 million/ml) were co-incubated with 0.1 ml of compound (10-0.41 μM, final concentration) for 1 hour in flat bottom 96 well microtiter plate. Compounds were dissolved in DMSO initially and diluted in TCM for a final concentration of 0.1% DMSO. LPS (Cal biochem, 20 ng/ml, final concentration) was then added at volume of 0.010 ml. Cultures were incubated overnight at 37° C.). Supernatant were then removed and tested by ELISA for TNF-α release. Viability was analyzed using MTT. After 0.1 ml supernatant was collected, 0.1 ml of 0.25 mg/ml of MTT was added to remaining 0.1 ml of cells. The cells were incubated at 37° C. for 2-4 hours, then the O.D was measured at 490-650 nm n.
# The TNF-α levels released in the culture medium were quantitated by ELISA. Inhibitory potency was expressed as IC50.
row,Compound,IC50 [nM]
1,"O=c1[nH]c2nc(NC3C4CNCC43)ncc2cc1-c1ccccc1Cl (stereo not shown) [Compound No. 58, 2-(3-Aza-bicyclo[3.1.0]hex-6-ylamino)-6-(2-chlorophenyl)-8H-pyrido[2,3-d]pyrimidin-7-one]",12 to 2300
2,"N#CCn1c(=O)c(-c2ccccc2Cl)cc2cnc(NC3C4CN(Cc5ccccc5)CC43)nc21 (stereo not shown) [Compound No. 56, [2-(3-Benzyl-3-aza-bicycyclo[3.1.0]hex-6-ylamino)-6-(2-chlorophenyl)-7-oxo-7H-pyrido[2,3-d]pyrimidin-8-yl]-acetonitrile]",12 to 2300
3,"NC(=O)N1CC2C(C1)C2Nc1ncc2cc(-c3ccccc3Cl)c(=O)n(C3CC3)c2n1 (stereo not shown) [Compound No. 63, 6-[6-(2-Chlorophenyl)-8-cyclopropyl-7-oxo-7,8-dihydro-pyrido[2,3-d]pyrimidin-2-ylamino]-3-aza-bicyclo[3.1.0]hexane-3-carboxylic acid amide]",12 to 2300
4,"Cn1c(=O)c(-c2ccccc2Cl)cc2cnc(NC3C4CN(S(C)(=O)=O)CC43)nc21 (stereo not shown) [Compound No. 4, 6-(2-Chlorophenyl)-2-(3-methanesulphonyl-3-aza-bicyclo[3.1.0]hex-6-ylamino)-8-methyl-8H-pyrido[2,3-d]pyrimidin-7-one]",12 to 2300
5,"N#CCn1c(=O)c(-c2ccccc2Cl)cc2cnc(NC3C4CN(C(=O)Nc5ccc(F)cc5)CC43)nc21 (stereo not shown) [Compound No. 57, 6-[6-(2-Chlorophenyl)-8-cyanomethyl-7-oxo-7,8-dihydro-pyrido[2,3-d]pyrimidin-2-ylamino]-3-aza-bicyclo[3.1.0]hexane-3-carboxylic acid (4-fluorophenyl)-amide]",12 to 2300
6,"O=c1c(-c2ccccc2Cl)cc2cnc(NC3C4CN(Cc5ccccc5)CC43)nc2n1C1CC1 (stereo not shown) [Compound No. 17, 2-(3-Benzyl-3-aza-bicyclo[3.1.0]hex-6-ylamino)-6-(2-chlorophenyl)-8-cyclopropyl-8H-pyrido[2,3-d]pyrimidin-7-one]",12 to 2300
7,"Cn1c(=O)c(-c2ccccc2Cl)cc2cnc(NC3C4CN(C(=O)OCc5ccccc5)CC43)nc21 (stereo not shown) [Compound No. 6, 6-[6-(2-Chlorophenyl)-8-methyl-7-oxo-7,8-dihydro-pyrido[2,3-d]pyrimidin-2-ylamino]-3-aza-bicyclo[3.1.0]hexane-3-carboxylic acid benzyl ester]",12 to 2300
8,"O=c1[nH]c2nc(NC3C4CN(Cc5ccccc5)CC43)ncc2cc1-c1ccccc1Cl (stereo not shown) [Compound No. 27, 2-(3-Benzyl-3-aza-bicyclo[3.1.0]hex-6-ylamino)-6-(2-chlorophenyl)-8H-pyrido[2,3-d]pyrimidin-7-one]",12 to 2300
9,"O=C(Nc1ccc(F)cc1)N1CC2C(C1)C2Nc1ncc2cc(-c3ccccc3Cl)c(=O)n(C3CC3)c2n1 (stereo not shown) [Compound No. 26, 6-[6-(2-Chlorophenyl)-8-cyclopropyl-7-oxo-7,8-dihydro-pyrido[2,3-d]pyrimidin-2-ylamino]-3-aza-bicyclo[3.1.0]hexane-3-carboxylic acid-(4-fluorophenyl)-amide]",12 to 2300
10,"O=c1c(-c2ccccc2Cl)cc2cnc(NCC3C4CN(Cc5ccccc5)CC34)nc2n1-c1ccc(F)cc1 (stereo not shown) [Compound No. 16, 2-[(3-Benzyl-3-aza-bicyclo[3.1.0]hex-6-ylmethyl)-amino]-6-(2-chlorophenyl)-8-(4-fluorophenyl)-8H-pyrido[2,3-d]pyrimidin-7-one]",12 to 2300
11,"O=c1c(-c2ccccc2Cl)cc2cnc(NC3C4CNCC43)nc2n1C1CC1 (stereo not shown) [Compound No. 19, 2-(3-Aza-bicyclo[3.1.0]hex-6-ylamino)-6-(2-chlorophenyl)-8-cyclopropyl-8H-pyrido[2,3-d]pyrimidin-7-one]",12 to 2300
12,CC(C)(C)CC(C)(C)NC(=O)N1CC2C(C1)C2Nc1ncc2cc(-c3ccccc3Cl)c(=O)n(C3CC3)c2n1 (stereo not shown) [Compound No. 24],12 to 2300
13,"CC(=O)N1CC2C(C1)C2Nc1ncc2cc(-c3ccccc3Cl)c(=O)n(C3CC3)c2n1 (stereo not shown) [Compound No. 23, 2-(3-Acetyl-3-aza-bicyclo[3.1.0]hex-6-ylamino)-6-(2-chlorophenyl)-8-cyclopropyl-8H-pyrido[2,3-d]pyrimidin-7-one]",12 to 2300
14,"O=c1c(-c2ccccc2Cl)cc2cnc(NC3C4COCC3CN(Cc3ccccc3)C4)nc2n1C1CC1 (stereo not shown) [Compound No. 33, 2-(7-Benzyl-3-oxa-7-aza-bicyclo[3.3.1]non-9-ylamino)-6-(2-chlorophenyl)-8-cyclopropyl-8H-pyrido[2,3-d]pyrimidin-7-one]",12 to 2300
15,"O=C(OCc1ccccc1)N1CC2C(C1)C2Nc1ncc2cc(-c3ccccc3Cl)c(=O)n(C3CC3)c2n1 (stereo not shown) [Compound No. 18, 6-[6-(2-Chlorophenyl)-8-cyclopropyl-7-oxo-7,8-dihydro-pyrido[2,3-d]pyrimidin-2-ylamino]-3-aza-bicyclo[3.1.0]hexane-3-carboxylic acid benzyl ester]",12 to 2300
16,"CN1CC2C(C1)C2Nc1ncc2cc(-c3ccccc3Cl)c(=O)n(C3CC3)c2n1 (stereo not shown) [Compound No. 20, 6-(2-Chlorophenyl)-8-cyclopropyl-2-(3-methyl-3-aza-bicyclo[3.1.0]hex-6-ylamino)-8H-pyrido[2,3-d]pyrimidin-7-one]",12 to 2300
17,"O=C(OCc1ccccc1)N1CC2C(C1)C2Nc1ncc2cc(-c3ccccc3Cl)c(=O)n(-c3ccc(F)cc3)c2n1 (stereo not shown) [Compound No. 12, 6-[6-(2-Chlorophenyl)-8-(4-fluorophenyl)-7-oxo-7,8-dihydro-pyrido[2,3-d]pyrimidin-2-ylamino]-3-aza-bicyclo[3.1.0]hexane-3-carboxylic acid benzyl ester]",12 to 2300
18,"Cn1c(=O)c(-c2ccccc2Cl)cc2cnc(NC3C4CN(C(=O)Nc5ccc(F)cc5)CC43)nc21 (stereo not shown) [Compound No. 2, 6-[6-(2-Chlorophenyl)-8-methyl-7-oxo-7,8-dihydro-pyrido[2,3-d]pyrimidin-2-ylamino]-3-aza-bicyclo[3.1.0]hexane-3-carboxylic acid-(4-fluorophenyl)-amide]",12 to 2300
